The source of these data is patent US20120157401A1, “METHODS FOR TREATING NEUROFIBROMATOSIS” (PTC Therapeutics, Inc., priority 2009, published 2012).

In the first assay the test system is hypoxia-inducible endogenous VEGF expression. The experiment in a line: Hypoxia-inducible endogenous VEGF expression ELISA in HeLa cells, dose-response EC50 (Table 3). In kind it is cell-based, human. Particulars: Homo sapiens, HeLa, read-out: ELISA EC50 μM. The gist of the method: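 HeLa cells kept 24-48 h under hypoxia (1% O2, 5% CO2, nitrogen balance) with or without compound, e.g. seven concentrations; secreted VEGF in conditioned medium quantified by ELISA against a standard curve. Parallel Cell Titer Glo viability under identical conditions excludes cytotoxicity.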
Turning to `O=C(Oc1ccc(Cl)cc1)N1CCc2c([nH]c3ccc(Cl)cc23)[C@@H]1c1ccc(OCCCN(CCO)CCO)cc1` [Compound 1258], the EC50 is less than 0.008 µM.

Take `O=C(Oc1ccc(Cl)cc1)N1CCc2c([nH]c3ccc(Cl)cc23)[C@@H]1c1ccc(OCCC(O)CN2CCOCC2)cc1` (stereo partly shown) [Compound 1279]: the concentration for a half-maximal effect (EC50) is less than 0.008 µM.

As for `O=C(Oc1ccc(Cl)cc1)N1CCc2c([nH]c3ccc(Cl)cc23)[C@@H]1c1ccc(OCCC(O)CN(CCO)CCO)cc1` (stereo partly shown) [Compound 1280], the EC50 lay within 0.008 to 0.04 µM.

Consider `Cc1ccc(OC(=O)N2CCc3c([nH]c4ccc(Cl)cc34)[C@@H]2c2ccc(OCCC(O)CN(CCO)CCO)cc2)cc1` (stereo partly shown) [Compound 1288], for which the concentration for a half-maximal effect (EC50) lay within 0.008 to 0.04 µM.

With `Cc1ccc(OC(=O)N2CCc3c([nH]c4ccc(Cl)cc34)[C@@H]2c2ccc(OCCC(O)CN3CCOCC3)cc2)cc1` (stereo partly shown) [Compound 1302], the EC50 lay in the range of 0.04 to 0.2 µM.

For the compound `COC(=O)[C@H]1CCCN1CCCOc1ccc(C2c3[nH]c4ccc(Cl)cc4c3CCN2C(=O)Oc2ccc(Cl)cc2)cc1` (stereo partly shown) [Compound 1362], the EC50 was less than 0.008 µM.

On to `CC(=O)N1CCN(CCCOc2cccc(C3c4[nH]c5ccc(Cl)cc5c4CCN3C(=O)Oc3ccc(F)cc3)c2)CC1` (stereo not shown) [Compound 1364], for which the EC50 fell in the range of 0.04 to 0.2 µM.

The assay is the same for the next values; noted with them: Homo sapiens; HeLa cells, hypoxic conditions (1% O2), 24-48 hours, VEGF in conditioned media; read-out: ELISA EC50.
`O=C(Oc1ccc(Cl)cc1)N1CCc2c([nH]c3ccc(Cl)cc23)[C@@H]1c1ccc(OC(CO)CO)cc1` [Compound 1259]: the 50% effective concentration (EC50) lay in the range of 0.008 to 0.04 µM.

Turning to `CC1(C)OC[C@@H](COc2ccc([C@H]3c4[nH]c5ccc(Cl)cc5c4CCN3C(=O)Oc3ccc(Cl)cc3)cc2)O1` [Compound 1260], the EC50 was less than 0.008 µM.

Turning to `O=C(Oc1ccc(Cl)cc1)N1CCc2c([nH]c3ccc(Cl)cc23)[C@@H]1c1ccc(OCC2(CO)COCOC2)cc1` [Compound 1263], the EC50 was less than 0.008 µM.

Regarding `COc1ccc(C2c3[nH]c4ccc(Cl)cc4c3CCN2C(=O)Oc2ccc(F)cc2)c(F)c1` (stereo not shown) [Compound 1265], the EC50 was in the range of 0.008 to 0.04 µM.

As to `COc1ccc(C2c3[nH]c4ccc(Cl)cc4c3CCN2C(=O)Oc2ccc(C)cc2)c(F)c1` (stereo not shown) [Compound 1266], the EC50 was less than 0.008 µM.

Regarding `COc1ccc(OC(=O)N2CCc3c([nH]c4ccc(Cl)cc34)C2c2ccc(OC)cc2F)cc1` (stereo not shown) [Compound 1267], the EC50 fell in the range of 0.008 to 0.04 µM.

As to `COc1ccc(C2c3[nH]c4ccc(Cl)cc4c3CCN2C(=O)Oc2ccc(Cl)cc2)c(F)c1` (stereo not shown) [Compound 1269], the EC50 is less than 0.008 µM.

Consider `CC(=O)NCC(O)CCOc1ccc([C@H]2c3[nH]c4ccc(Cl)cc4c3CCN2C(=O)Oc2ccc(Cl)cc2)cc1` (stereo partly shown) [Compound 1276], for which the EC50 is less than 0.008 µM.

On to `CC(=O)NCC(CCOc1ccc([C@H]2c3[nH]c4ccc(Cl)cc4c3CCN2C(=O)Oc2ccc(Cl)cc2)cc1)OC(C)=O` (stereo partly shown) [Compound 1277], for which the EC50 is less than 0.008 µM.

Consider `COCC(=O)NCC(O)CCOc1ccc([C@H]2c3[nH]c4ccc(Cl)cc4c3CCN2C(=O)Oc2ccc(Cl)cc2)cc1` (stereo partly shown) [Compound 1278], for which the concentration for a half-maximal effect (EC50) is less than 0.008 µM.

For `O=C(Oc1ccc(Cl)cc1)N1CCc2c([nH]c3ccc(Cl)cc23)[C@@H]1c1ccc(OCCC(O)Cn2ccnn2)cc1` (stereo partly shown) [Compound 1281], the EC50 is less than 0.008 µM.

With `O=C(Oc1ccc(Cl)cc1)N1CCc2c([nH]c3ccc(Cl)cc23)[C@@H]1c1ccc(OCCC(O)Cn2cncn2)cc1` (stereo partly shown) [Compound 1282], the EC50 was less than 0.008 µM.

Consider `Cc1ccc(OC(=O)N2CCc3c([nH]c4ccc(Cl)cc34)[C@@H]2c2ccc(OCCC(O)Cn3ccnn3)cc2)cc1` (stereo partly shown) [Compound 1289], for which the EC50 was less than 0.008 µM.

Take `Cc1ccc(OC(=O)N2CCc3c([nH]c4ccc(Cl)cc34)[C@@H]2c2ccc(OCCC(O)Cn3nccn3)cc2)cc1` (stereo partly shown) [Compound 1290]: the EC50 is less than 0.008 µM.

Consider `Cc1ccc(OC(=O)N2CCc3c([nH]c4ccc(Cl)cc34)[C@@H]2c2ccc(OCCC(O)Cn3cncn3)cc2)cc1` (stereo partly shown) [Compound 1291], for which the half-maximal effective concentration (EC50) is 0.008 to 0.04 µM.

As to `Cc1ccc(OC(=O)N2CCc3c([nH]c4ccc(Cl)cc34)[C@@H]2c2ccc(OCC[C@H](O)CO)cc2)cc1` [Compound 1292], the EC50 is less than 0.008 µM.

For the compound `O=C(Oc1ccc(F)cc1)N1CCc2c([nH]c3ccc(Cl)cc23)[C@@H]1c1ccc(OCC[C@H](O)CO)cc1` [Compound 1293], the EC50 is less than 0.008 µM.

Turning to `Cc1ccc(OC(=O)N2CCc3c([nH]c4ccc(Cl)cc34)[C@@H]2c2ccc(OCC(C)(CO)CO)cc2)cc1` [Compound 1297], the EC50 lay in the range of 0.008 to 0.04 µM.

In the case of `O=C(Oc1ccccc1)N1CCc2c([nH]c3ccc(Cl)cc23)[C@@H]1c1ccc(OCC[C@H](O)CO)cc1` [Compound 1299], the EC50 was less than 0.008 µM.

In the case of `COc1ccc(OC(=O)N2CCc3c([nH]c4ccc(Cl)cc34)[C@@H]2c2ccc(OCC[C@H](O)CO)cc2)cc1` [Compound 1300], the concentration giving a half-maximal response (EC50) was less than 0.008 µM.

For `COCC(=O)NCC(O)CCOc1ccc([C@H]2c3[nH]c4ccc(Cl)cc4c3CCN2C(=O)Oc2ccc(C)cc2)cc1` (stereo partly shown) [Compound 1301], the EC50 was 0.008 to 0.04 µM.

Staying with this assay, now noted: Homo sapiens; HeLa cells, hypoxic conditions (1% O2), VEGF ELISA of conditioned media; read-out: ELISA EC50.
Take `CCC(CO)(CO)COc1ccc([C@H]2c3[nH]c4ccc(Cl)cc4c3CCN2C(=O)Oc2ccc(F)cc2)cc1` [Compound 1328]: the EC50 was less than 0.008 µM.

With `CCC(CO)(CO)COc1ccc([C@H]2c3[nH]c4ccc(Cl)cc4c3CCN2C(=O)Oc2ccc(Cl)cc2)cc1` [Compound 1329], the EC50 is less than 0.008 µM.

On to `O=C(Oc1ccc(Cl)cc1)N1CCc2c([nH]c3ccc(Cl)cc23)[C@H]1c1ccc(OCC[C@H](O)CO)cc1` [Compound 1330], for which the concentration for a half-maximal effect (EC50) is greater than 1 µM.

Take `CC1(C)OC[C@H](CCOc2ccc([C@@H]3c4[nH]c5ccc(Cl)cc5c4CCN3C(=O)Oc3ccc(Cl)cc3)cc2)O1` [Compound 1331]: the EC50 is greater than 1 µM.

Turning to `CC(CO)(CO)COc1ccc([C@H]2c3[nH]c4ccc(Cl)cc4c3CCN2C(=O)Oc2ccccc2)cc1` [Compound 1336], the EC50 lay within 0.008 to 0.04 µM.

`COc1ccc(OC(=O)N2CCc3c([nH]c4ccc(Cl)cc34)[C@@H]2c2ccc(OCC(C)(CO)CO)cc2)cc1` [Compound 1337]: the EC50 fell in the range of 0.008 to 0.04 µM.

Consider `O=C(Oc1ccc(F)cc1)N1CCc2c([nH]c3ccc(Br)cc23)C1c1ccc(OCC(O)CO)cc1` (stereo not shown) [Compound 1343], for which the EC50 is less than 0.008 µM.

With `O=C(Oc1ccc(Cl)cc1)N1CCc2c([nH]c3ccc(Br)cc23)C1c1ccc(OCC(O)CO)cc1` (stereo not shown) [Compound 1344], the EC50 is less than 0.008 µM.

As for `O=C(Oc1ccc(F)cc1)N1CCc2c([nH]c3ccc(Br)cc23)C1c1ccc(OCC[C@H](O)CO)cc1` (stereo partly shown) [Compound 1348], the EC50 was less than 0.008 µM.

As to `O=C(Oc1ccc(Cl)cc1)N1CCc2c([nH]c3ccc(Br)cc23)C1c1ccc(OCC[C@H](O)CO)cc1` (stereo partly shown) [Compound 1349], the EC50 was less than 0.008 µM.

As for `CC(CO)(CO)COc1ccc(C2c3[nH]c4ccc(Br)cc4c3CCN2C(=O)Oc2ccc(F)cc2)cc1` (stereo not shown) [Compound 1352], the EC50 is less than 0.008 µM.

In the case of `CC(CO)(CO)COc1ccc(C2c3[nH]c4ccc(Br)cc4c3CCN2C(=O)Oc2ccc(Cl)cc2)cc1` (stereo not shown) [Compound 1353], the EC50 is less than 0.008 µM.

`CCC(CO)(CO)COc1ccc(C2c3[nH]c4ccc(Br)cc4c3CCN2C(=O)Oc2ccc(F)cc2)cc1` (stereo not shown) [Compound 1357]: the EC50 is less than 0.008 µM.

In the case of `CCC(CO)(CO)COc1ccc(C2c3[nH]c4ccc(Br)cc4c3CCN2C(=O)Oc2ccc(Cl)cc2)cc1` (stereo not shown) [Compound 1358], the EC50 is less than 0.008 µM.

Turning to `COc1ccc(OC(=O)N2CCc3c([nH]c4ccc(Cl)cc34)[C@@H]2c2ccc(OCC[C@@H](O)CO)cc2)cc1` [Compound 1361], the EC50 fell in the range of 0.008 to 0.04 µM.

In the case of `[H]/N=c1\sccn1CCOc1ccc(C2c3[nH]c4ccc(Cl)cc4c3CCN2C(=O)Oc2ccc(F)cc2)cc1` (stereo not shown) [Compound 1391], the EC50 is less than 0.008 µM.

As to `[H]/N=c1\sc(C)cn1CCOc1ccc(C2c3[nH]c4ccc(Cl)cc4c3CCN2C(=O)Oc2ccc(F)cc2)cc1` (stereo not shown) [Compound 1392], the EC50 is less than 0.008 µM.

As to `[H]/N=c1\sccn1CCOc1ccc(C2c3[nH]c4ccc(Cl)cc4c3CCN2C(=O)Oc2ccc(Cl)cc2)cc1` (stereo not shown) [Compound 1393], the EC50 is less than 0.008 µM.

For the compound `[H]/N=c1\sc(C)cn1CCOc1ccc(C2c3[nH]c4ccc(Cl)cc4c3CCN2C(=O)Oc2ccc(Cl)cc2)cc1` (stereo not shown) [Compound 1394], the EC50 was less than 0.008 µM.

Turning to `Nc1ccn(CCOc2ccc(C3c4[nH]c5ccc(Cl)cc5c4CCN3C(=O)Oc3ccc(F)cc3)cc2)n1` (stereo not shown) [Compound 1413], the EC50 is less than 0.008 µM.

`Cc1cc(N)nn1CCOc1ccc(C2c3[nH]c4ccc(Cl)cc4c3CCN2C(=O)Oc2ccc(F)cc2)cc1` (stereo not shown) [Compound 1414]: the EC50 is less than 0.008 µM.

On to `[H]/N=c1\scnn1CCOc1ccc(C2c3[nH]c4ccc(Cl)cc4c3CCN2C(=O)Oc2ccc(F)cc2)cc1` (stereo not shown) [Compound 1415], for which the EC50 is less than 0.008 µM.

As to `NC(=O)c1cn(CCOc2ccc(C3c4[nH]c5ccc(Cl)cc5c4CCN3C(=O)Oc3ccc(F)cc3)cc2)nc1N` (stereo not shown) [Compound 1416], the EC50 was in the range of 0.04 to 0.2 µM.

On to `Nc1ccn(CCOc2ccc(C3c4[nH]c5ccc(Cl)cc5c4CCN3C(=O)Oc3ccc(Cl)cc3)cc2)n1` (stereo not shown) [Compound 1417], for which the EC50 was less than 0.008 µM.

With `Cc1cc(N)nn1CCOc1ccc(C2c3[nH]c4ccc(Cl)cc4c3CCN2C(=O)Oc2ccc(Cl)cc2)cc1` (stereo not shown) [Compound 1418], the 50% effective concentration (EC50) was 0.008 to 0.04 µM.

For the compound `Cc1cc(NCCOc2ccc(C3c4[nH]c5ccc(Cl)cc5c4CCN3C(=O)Oc3ccc(Cl)cc3)cc2)on1` (stereo not shown) [Compound 1419], the concentration for a half-maximal effect (EC50) lay within 0.008 to 0.04 µM.

As for `[H]/N=c1\scnn1CCOc1ccc(C2c3[nH]c4ccc(Cl)cc4c3CCN2C(=O)Oc2ccc(Cl)cc2)cc1` (stereo not shown) [Compound 1420], the EC50 is less than 0.008 µM.

On to `N#Cc1cn(CCOc2ccc(C3c4[nH]c5ccc(Cl)cc5c4CCN3C(=O)Oc3ccc(Cl)cc3)cc2)nc1N` (stereo not shown) [Compound 1421], for which the EC50 is less than 0.008 µM.

On to `NC(=O)c1cn(CCOc2ccc(C3c4[nH]c5ccc(Cl)cc5c4CCN3C(=O)Oc3ccc(Cl)cc3)cc2)nc1N` (stereo not shown) [Compound 1422], for which the EC50 fell in the range of 0.008 to 0.04 µM.

For `O=C(Oc1ccc(F)cc1)N1CCc2c([nH]c3ccc(Cl)cc23)C1c1ccc(OCCNc2ncncn2)cc1` (stereo not shown) [Compound 1440], the EC50 is less than 0.008 µM.

What is called EC50 is the concentration that produces a half-maximal response.
